From US8283353B2, “Fused ring compound and use thereof” (Takeda Pharmaceutical Company Limited, priority 2009, dated 2012)

Experiments:
human PPARγ = target: T1, human PPARγ (Homo sapiens, UniProt P37231); test: PPARγ agonistic activity: luciferase reporter assay in PPARγ:RXRα:4ERPP/CHO-K1 cells; assay type: cell-based; conditions: CHO-K1, test compound 10^−6 M; luciferase activity of control compound X (1 μM) = 100%, non-administration group = 0%
T1 construct: expressed in transfected cells
T1 sequence (P37231 1-477 isoform P37231-2): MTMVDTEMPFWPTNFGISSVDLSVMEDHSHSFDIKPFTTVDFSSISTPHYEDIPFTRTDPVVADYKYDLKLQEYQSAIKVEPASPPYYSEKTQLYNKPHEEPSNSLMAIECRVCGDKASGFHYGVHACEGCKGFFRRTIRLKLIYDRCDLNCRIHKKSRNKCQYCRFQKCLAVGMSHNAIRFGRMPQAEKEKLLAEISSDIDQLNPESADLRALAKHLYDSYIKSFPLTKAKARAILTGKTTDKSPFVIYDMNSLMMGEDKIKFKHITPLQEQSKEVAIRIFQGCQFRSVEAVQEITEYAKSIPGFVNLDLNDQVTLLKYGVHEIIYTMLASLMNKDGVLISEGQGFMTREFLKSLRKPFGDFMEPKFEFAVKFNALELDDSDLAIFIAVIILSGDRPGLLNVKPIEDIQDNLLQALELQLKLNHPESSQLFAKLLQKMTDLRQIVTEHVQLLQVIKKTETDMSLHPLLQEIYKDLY
T1 sequence (P19793 1-462 partner): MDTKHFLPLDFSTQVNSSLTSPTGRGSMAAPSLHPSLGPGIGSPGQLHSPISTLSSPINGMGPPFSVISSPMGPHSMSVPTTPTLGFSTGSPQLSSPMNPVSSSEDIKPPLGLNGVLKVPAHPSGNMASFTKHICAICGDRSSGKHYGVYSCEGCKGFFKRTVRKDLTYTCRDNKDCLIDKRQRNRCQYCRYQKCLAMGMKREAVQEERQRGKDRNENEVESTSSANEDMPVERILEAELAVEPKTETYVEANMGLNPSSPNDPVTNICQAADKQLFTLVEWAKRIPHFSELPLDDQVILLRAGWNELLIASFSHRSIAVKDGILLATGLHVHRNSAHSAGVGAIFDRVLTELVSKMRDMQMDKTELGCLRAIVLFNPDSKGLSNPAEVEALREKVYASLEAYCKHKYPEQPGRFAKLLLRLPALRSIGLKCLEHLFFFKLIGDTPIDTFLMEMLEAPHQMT
From the text: A CHO-K1 cell cultured in a 150 cm^2 cell culture flask [manufactured by Corning Costar Corporation, USA] comprising Ham's F12 medium [manufactured by INVITROGEN, USA] supplemented with 10% fetal bovine serum [manufactured by INVITROGEN, USA] was taken off by treating with 0.5 g/L trypsin-0.2 g/L EDTA (ethylenediamine tetraacetate) [manufactured by Life Technologies, Inc., USA], and then the cell was washed with PBS (Phosphate-buffered saline) [manufactured by INVITROGEN, USA], centrifuged (1000 rpm, 5 minutes) and suspended in PBS. Subsequently, DNA was introduced into the cell under the conditions shown below using GENE PULSER [manufactured by Bio-Rad Laboratories, USA].
Namely, to a cuvette having a 0.4 cm gap were added 8×10^6 cells and 10 μg of plasmid pVgRXR2-hPPARγ obtained in the above-mentioned (4) and 10 μg of reporter plasmid pGL3-4ERPP-TK neo obtained in the above-mentioned (3), which was subjected to electroporation at the voltage of 0.25 kV under the capacitance of […] Subsequently, the cell was transferred into a F12 medium comprising 10% fetal bovine serum and cultured for 24 hours, and then the cell was taken off again and centrifuged. Then, the pellet was suspended in Ham's F12 medium comprising 10% fetal bovine serum supplemented with 500 μg/ml of Geneticin [manufactured by INVITROGEN, USA] and 250 μg/ml of Zeocin [manufactured by INVITROGEN, USA]. The obtained suspension was diluted to the density of 10^4 cells/ml and inoculated in a 96-well plate [manufactured by Corning Costar Corporation, USA], which was cultured in a CO2 gas incubator at 37° C., whereby obtaining a Geneticin- and Zeocin-resistant transformant.
Subsequently, after the transformed cell line thus obtained was cultured in a 24-well plate [manufactured by Corning Costar Corporation, USA], a cell line in which expression of the luciferase was induced, i.e., PPARγ:RXRα:4ERPP/CHO-K1 cell was selected by the addition of 10 μM pioglitazone hydrochloride.
PPARγ:RXRα:4ERPP/CHO-K1 cells obtained in the above-mentioned (5) were cultured in F12 medium [manufactured by INVITROGEN, USA] containing 10% fetal bovine serum [manufactured by MOREGATE, Australia], seeded in a 96 well half-area white plate [manufactured by Corning Coster Corporation, USA] at 5×10^3 cells/well, and cultured in a CO2 incubator at 37° C. overnight.
Then, the medium was removed from the 96 well half-area white plate, hamF12 medium containing 0.1% fatty acid-free bovine serum albumin (BSA) (45 μl) and a test compound (5 μl) were added, and the mixture was cultured in the CO2 incubator at 37° C. for 1 day. After removing the medium, Picagene 7.5 [manufactured by Dai Nippon Inki, Japan] (20 μl) diluted 2-fold with HBSS (HANKS' BALANCED SALT SOLUTION) [manufactured by BIO […], USA] was added, and the mixture was stirred. Using 1420 ARVO Multilabel Counter [manufactured by PerkinElmer, USA], luciferase activity was measured. The percentage (%) was calculated from the luciferase activity of the test compound when the luciferase activity of the control compound (compound X: 5-[3-(4-{[2-(2-furyl)-5-methyl-1,3-oxazol-4-yl]methoxy}-3-methoxyphenyl)propyl]-1,3-oxazolidine-2,4-dione) (1 μM) was taken as 100% and the luciferase activity of the test compound non-administration group was taken as 0%.

human AT1 receptor = target: T2, human AT1 receptor (Homo sapiens, UniProt P30556); test: AT1 receptor antagonistic activity: [125I]-angiotensin II binding assay on human AT1 receptor-expressing CHO-K1 cellular membrane fraction; conditions: 22.5 pM [125I]-angiotensin II, 1 hr room temperature
T2 construct: expressed in transfected cells; membrane fraction
T2 sequence (P30556 1-359): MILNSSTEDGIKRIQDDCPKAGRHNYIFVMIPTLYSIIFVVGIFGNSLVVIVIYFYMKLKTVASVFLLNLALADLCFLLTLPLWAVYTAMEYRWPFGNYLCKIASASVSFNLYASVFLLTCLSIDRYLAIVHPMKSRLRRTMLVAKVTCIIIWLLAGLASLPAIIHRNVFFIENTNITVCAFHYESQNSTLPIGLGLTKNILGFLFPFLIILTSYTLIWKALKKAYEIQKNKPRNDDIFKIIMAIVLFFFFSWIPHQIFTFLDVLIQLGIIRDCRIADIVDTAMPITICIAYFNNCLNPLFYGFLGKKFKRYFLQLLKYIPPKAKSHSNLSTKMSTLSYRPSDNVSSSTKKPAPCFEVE
Procedure: CHO-K1 cell (RIKEN, Japan) capable of stable expression of human AT1 receptor was cultured, recovered, suspended in homogenize buffer (10 mM NaHCO3 (pH 7.4), 5 mM EDTA, 1× Complete EDTA free) [manufactured by Roche, Switzerland], and homogenized. The homogenate was centrifuged at low-speed (900×g, 10 min, 4° C.), and the supernatant was recovered and ultracentrifuged (90,000×g, 1 hr, 4° C.). The supernatant was discarded, and the pellets were resuspended in suspension buffer (50 mM Tris (pH 7.4), 1 mM EDTA, 1× Complete EDTA free).
(9 μg) in the presence of AT1 membrane and test compound in 100 μl, (total reaction volume) of reaction buffer (50 mM Tris (pH 7.4), 10 mM MgCl2 supplemented or not supplemented with 0.3 mg/mL fatty acid-free bovine serum albumin [manufactured by Wako Pure Chemical Industries, Ltd., Japan]). The reaction mixture was incubated in 96 well polypropylene plate for 1 hr at room temperature, and the reaction was quenched by rapid filtration (96 well cell harvester) through a GF/C filter treated with wash buffer (50 mM Tris (pH 7.4)). Subsequently, the filter was washed 5 times with 0.3 mL of ice-cooled wash buffer. […] Total binding was measured in the presence of 1% DMSO and nonspecific binding was measured in the presence of […] Candesartan.

Compound	activation at 1 µM (human PPARγ)	IC50 (human AT1 receptor)
CCCc1c(Cc2ccc(-c3ccccc3-c3noc(=O)[nH]3)cc2)c(=O)n([C@H]2CC[C@H](OC(C)C#N)CC2)c2ncnn12 (stereo partly drawn) [Example 244, 2-({trans-4-[5-oxo-6-{[2′-(5-oxo-4,5-dihydro-1,2,4-oxadiazol-3-yl)biphenyl-4-yl]methyl}-7-propyl[1,2,4]triazolo[1,5-a]pyrimidin-4(5H)-yl]cyclohexyl}oxy)propanenitrile]	29%	2.3 nM
CCCc1c(Cc2ccc(-c3ccccc3-c3noc(=O)[nH]3)cc2F)c(=O)n(Cc2ccc(OC)cc2OC)c2ncnn12 [Example 37, 4-(2,4-dimethoxybenzyl)-6-{[3-fluoro-2′-(5-oxo-4,5-dihydro-1,2,4-oxadiazol-3-yl)biphenyl-4-yl]methyl}-7-propyl[1,2,4]triazolo[1,5-a]pyrimidin-5(4H)-one]	33%	2.5 nM
CCCc1c(Cc2ccc(-c3ccccc3-c3noc(=O)[nH]3)cc2)c(=O)n(C2CCC(OC)CC2)c2ncnn12 (stereo not shown) [Example 152, 4-(4-methoxycyclohexyl)-6-{[2′-(5-oxo-4,5-dihydro-1,2,4-oxadiazol-3-yl)biphenyl-4-yl]methyl}-7-propyl[1,2,4]triazolo[1,5-a]pyrimidin-5(4H)-one]	39%	2.4 nM
CCCc1c(Cc2ccc(-c3ccccc3-c3noc(=O)[nH]3)cc2)c(=O)n(C2CCCOC2)c2ncnn12 (stereo not shown) [Example 124, 6-{[2′-(5-oxo-4,5-dihydro-1,2,4-oxadiazol-3-yl)biphenyl-4-yl]methyl}-7-propyl-4-(tetrahydro-2H-pyran-3-yl)[1,2,4]triazolo[1,5-a]pyrimidin-5(4H)-one]	21%	2.4 nM
CCCc1c(Cc2ccc(-c3ccccc3-c3noc(=O)[nH]3)cc2)c(=O)n([C@H]2CC[C@]3(CCC(CO)O3)CC2)c2ncnn12 (stereo partly drawn) [Example 391, 4-[(5S,8S)-2-(hydroxymethyl)-1-oxaspiro[4.5]dec-8-yl]-6-{[2′-(5-oxo-4,5-dihydro-1,2,4-oxadiazol-3-yl)biphenyl-4-yl]methyl}-7-propyl[1,2,4]triazolo[1,5-a]pyrimidin-5(4H)-one]	28%	3.1 nM

Now those with a lower IC50 (human AT1 receptor), led by results:

activation at 1 µM (human PPARγ)	IC50 (human AT1 receptor)	Compound
54%	1.4 nM	CCCc1c(Cc2ccc(-c3ccccc3-c3noc(=O)[nH]3)cc2)c(=O)n([C@H]2CC[C@H](C(=O)OCC)CC2)c2ncnn12 [Example 168, ethyl trans-4-[5-oxo-6-{[2′-(5-oxo-4,5-dihydro-1,2,4-oxadiazol-3-yl)biphenyl-4-yl]methyl}-7-propyl[1,2,4]triazolo[1,5-a]pyrimidin-4(5H)-yl]cyclohexanecarboxylate]
19%	1.8 nM	CCCCc1c(Cc2ccc(-c3ccccc3-c3nnn[nH]3)cc2F)c(=O)n([C@H]2CC[C@H](OCC(C)(C)O)CC2)c2ncnn12 [Example 457, 7-butyl-6-{[3-fluoro-2′-(1H-tetrazol-5-yl)biphenyl-4-yl]methyl}-4-[trans-4-(2-hydroxy-2-methylpropoxy)cyclohexyl][1,2,4]triazolo[1,5-a]pyrimidin-5(4H)-one]
16%	1.8 nM	CCCc1c(Cc2ccc(-c3ccccc3-c3noc(=O)[nH]3)cc2)c(=O)n([C@H]2CC[C@H](OC(C)C(C)(C)O)CC2)c2ncnn12 (stereo partly drawn) [Example 300, 4-[trans-4-(2-hydroxy-1,2-dimethylpropoxy)cyclohexyl]-6-{[2′-(5-oxo-4,5-dihydro-1,2,4-oxadiazol-3-yl)biphenyl-4-yl]methyl}-7-propyl[1,2,4]triazolo[1,5-a]pyrimidin-5(4H)-one]
23%	1.6 nM	CCCc1c(Cc2ccc(-c3ccccc3-c3noc(=O)[nH]3)cc2)c(=O)n([C@H]2CC[C@H](OC/C(C)=N/OC)CC2)c2ncnn12 [Example 216, 4-(trans-4-{[(2E)-2-(methoxyimino)propyl]oxy}cyclohexyl)-6-{[2′-(5-oxo-4,5-dihydro-1,2,4-oxadiazol-3-yl)biphenyl-4-yl]methyl}-7-propyl[1,2,4]triazolo[1,5-a]pyrimidin-5(4H)-one]
–	1.2 nM	CCCCc1c(Cc2ccc(-c3ccccc3-c3noc(=O)[nH]3)cc2)c(=O)n(C2CCOC(C)C2)c2ncnn12 (stereo not shown) [Example 161, 7-butyl-4-(2-methyltetrahydro-2H-pyran-4-yl)-6-{[2′-(5-oxo-4,5-dihydro-1,2,4-oxadiazol-3-yl)biphenyl-4-yl]methyl}[1,2,4]triazolo[1,5-a]pyrimidin-5(4H)-one]
